Patent US9796777B2, “Methods of treating malignant tumors” (Canimguide Therapeutics AB, priority 2007, dated 2017)

Test system: PBMC
Assay: LPS-induced IL-6 production by PBMC, effect of peptides
Format: cell-based, human
Conditions: three cancer patients

VFDEFKPLVEEPQNLIK [peptide 3028]
effect on LPS induced IL-6 production: essentially no effects
